Marks after values point to notes of the source that are not given here.
Assays:
HaCaT cells [1] = experiment: Production of reactive oxygen species in HaCat cells incubated with oil then preservative (POE or MIT); assay type: cell-based
Protocol: Preservatives, used as an additive in pharmaceutical compositions, were evaluated. The preservatives evaluated are phenoxyethanol (POE) and methylisothiazolinone (MIT).
For this test, the HaCat cells are incubated with the oils A or B (for example for 15 minutes for the test with POE) then with the preservative POE or MIT (for example for 30 minutes with a solution of phenoxyethanol at 250 μg/mL).

HaCaT cells [2] = experiment: Condensation of the chromatin, HOECHST 33342 test, HaCat cells with or without benzalkonium chloride; assay type: cell-based; conditions: one hour with oil or CM, then 20 minutes benzalkonium chloride (BAC) 8 ppm by weight
Protocol: The following standards and methods were used to measure the properties hereinabove: • flash point: EN ISO 2719 • density at 15° C.: EN ISO 1185 • viscosity at 40° C.: EN ISO 3104 • aniline point: EN ISO 2977 • boiling point: ASTM D86 • biodegradability: OECD method 306 • refractive index at 20° C.: ASTM D 1218 • vapour pressure: calculated according to methods well known to those skilled in the art Tests on the Cellular Effects Preparation of the Tests: • Preparation of the microplates: 24 hours before the incubation with the oils A and B, the HaCaT cells are inoculated with a cell density of 100,000 cells/ml in 96-well microplates (Corning). The microplates are then placed in the incubator at 37° C. In a microplate, each condition was tested at least three times. Each experiment was carried out at least three times independently in order to validate the reproducibility of the results and to carry out statistical analyses. • Incubation of cells with the oils A or B: two durations of incubation were selected for the products to be tested pure: an incubation for fifteen minutes and an incubation for one hour. […]
The measurement of the condensation of the chromatin expressed as a percentage relative to the culture medium (CM) is indicated in table 3 hereinbelow.

Cn1sccc1=O [MIT, methylisothiazolinone]
Production of reactive oxygen species (% relative to the CM) (HaCaT cells [1]; with preservative methylisothiazolinone (MIT), after incubation with oil or CM): 135 % relative to the CM

benzalkonium chloride [CM + BAC]
Measurement of the condensation of the chromatin (% relative to the CM) (HaCaT cells [2]): 138*** % relative to the CM

phenoxyethanol [CM + POE]
Production of reactive oxygen species (% relative to the CM) (HaCaT cells [1]; with preservative phenoxyethanol (POE) 250 μg/mL 30 minutes, after 15 minutes with oil or CM): 132 % relative to the CM

From patent US11179347B2, “Hydrocarbon oil for a therapeutic use” (TOTAL MARKETING SERVICES, priority 2017, dated 2021)
